Test results from PubChem BioAssay (NCI).
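Interpolation was linear, between the two tested concentrations surrounding the appropriate level; five concentrations were tested over 48 hours in 96-well plates. TGI denotes the concentration required for complete inhibition of growth.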

Key:
Experiment in all cases: NCI anticancer screen, dose series, 48 h
A498 renal = system: A498 renal
ACHN renal = system: ACHN renal
NCI-H23 lung = system: NCI-H23 lung
OVCAR-8 ovarian = system: OVCAR-8 ovarian
SN12C renal = system: SN12C renal
UACC-257 melanoma = system: UACC-257 melanoma
K-562 leukemia = system: K-562 leukemia
RXF 393 renal = system: RXF 393 renal
HOP-92 NSCLC = system: HOP-92 NSCLC

Row | SMILES | TGI (A498 renal) | TGI (ACHN renal) | TGI (NCI-H23 lung) | TGI (OVCAR-8 ovarian) | TGI (SN12C renal) | TGI (UACC-257 melanoma) | TGI (K-562 leukemia) | TGI (RXF 393 renal) | TGI (HOP-92 NSCLC)
1 | O=C1/C=C(/c2ccc(O)cc2)[C@H](O)Cc2ccc(OC3OC(CO)C(O)C(O)C3O)cc2O1 (some centres not stated) (tested in a mixture with another compound) | > 100 µM | > 100 µM | > 100 µM | > 100 µM | > 100 µM | > 100 µM | – | – | –
2 | Clc1cc(Cl)c2n[se]nc2c1 | > 100 µM | > 100 µM | > 100 µM | > 100 µM | > 100 µM | > 100 µM | > 100 µM | > 100 µM | –
3 | COc1cc(OC)c(Oc2cccc(OC)c2OC)c(OC)c1 | > 100 µM | > 100 µM | > 100 µM | > 100 µM | > 100 µM | > 100 µM | > 100 µM | – | > 100 µM
4 | O=C(c1ccc(Cl)cc1)N(C(=S)N1CCN(c2ccccc2)CC1)C1CCCCC1 | – | > 100 µM | > 100 µM | > 100 µM | > 100 µM | > 100 µM | > 100 µM | > 100 µM | > 100 µM
5 | O=C(CC1Sc2ccccc2NC1=O)Nc1ccc([N+](=O)[O-])cc1[N+](=O)[O-] (configuration not stated) | – | 30.3 µM | 27.2 µM | 31 µM | 29.7 µM | 46.2 µM | – | 26.3 µM | 31.3 µM
6 | Cn1c(=O)c(C2c3ccccc3Oc3c2c(=O)n(C)c2ccccc32)c(O)c2ccccc21 (configuration not stated) | – | > 100 µM | > 100 µM | > 100 µM | > 100 µM | 73.7 µM | > 100 µM | > 100 µM | > 100 µM
7 | O=c1c2ccccc2oc2nccnc12 | > 100 µM | > 100 µM | > 100 µM | > 100 µM | > 100 µM | > 100 µM | > 100 µM | > 100 µM | –
8 | Cc1cc(C)cc(NC(=O)CCC(=O)C2CCC/C2=N\NC(=O)C(=O)NN)c1 (configuration not stated) | > 100 µM | > 100 µM | > 100 µM | > 100 µM | > 100 µM | > 100 µM | > 100 µM | > 100 µM | –
9 | CC(C)CCC[C@@H](C)C1CCC2[C@@H]3CC=C4C[C@@H](OC(=O)CCC(=O)NCC[N+](C)(C)CCCS(=O)(=O)[O-])CC[C@]4(C)C3CC[C@@]21C (some centres not stated) | – | 53.9 µM | – | 35 µM | 38.2 µM | 48.8 µM | 37.6 µM | 24.2 µM | –
10 | O=C(N/C(=C\c1cc(Cl)ccc1Cl)c1nc2ccccc2[nH]1)c1ccccc1 | – | > 100 µM | 96.9 µM | 46.9 µM | > 100 µM | – | 76.6 µM | 64.4 µM | 31.5 µM
11 | C[N+](C)(C)CC(=O)NC(=O)N/N=C\C(CC#N)CN(Cc1ccccc1)Cc1ccccc1 (configuration not stated) | > 100 µM | > 100 µM | > 100 µM | > 100 µM | > 100 µM | > 100 µM | > 100 µM | > 100 µM | –
12 | COc1ccc(/C=N\N2C(=O)Cc3ccccc32)cc1 | > 100 µM | > 100 µM | > 100 µM | > 100 µM | – | > 100 µM | > 100 µM | – | 85.5 µM
13 | COC(=O)C1=C(SC)SC2(C(=O)OC)C3C=C(C)C4C(N13)C42C(=O)OC (configuration not stated) | – | > 100 µM | > 100 µM | > 100 µM | > 100 µM | > 100 µM | > 100 µM | > 100 µM | –
14 | COc1cc2c3c(c1OC)C1(C=CC(=O)C=C1)CC3N(C(=O)OC(C)(C)C(Cl)(Cl)Cl)CC2 (configuration not stated) | 31.9 µM | – | 32.4 µM | 31.5 µM | 26.6 µM | 26.2 µM | 50.2 µM | 18.5 µM | 29.8 µM
15 | Cc1cc(C)c(-c2noc(-c3ccc(Cl)cc3)c2C2=NCCN2)c(C)c1 | – | > 100 µM | 36.2 µM | – | 45.5 µM | 34 µM | 37.4 µM | 45.1 µM | –
16 | CC(C)(C)NC(=O)C12C3C4C1C1C2C3C41I (configuration not stated) | > 100 µM | – | > 100 µM | > 100 µM | > 100 µM | > 100 µM | > 100 µM | – | > 100 µM
17 | CCOc1cccc2cccnc12 | – | > 100 µM | > 100 µM | > 100 µM | > 100 µM | > 100 µM | > 100 µM | > 100 µM | > 100 µM
18 | COc1ccc2c(c1)C(CCN)C(=O)N2 (configuration not stated) | > 100 µM | > 100 µM | > 100 µM | > 100 µM | – | > 100 µM | > 100 µM | – | > 100 µM
19 | COc1ncn(C2C=C(CO)C(O)C2O)c(=O)n1 (configuration not stated) | > 100 µM | > 100 µM | – | > 100 µM | > 100 µM | > 100 µM | > 100 µM | > 100 µM | –
20 | COc1ccccc1NC(=O)CC(=O)NNCC(=O)Nc1nc(-c2ccccc2)cs1 | – | – | > 100 µM | > 100 µM | > 100 µM | – | > 100 µM | > 100 µM | –
21 | COC(=O)c1ccc2n[se]nc2c1 | > 100 µM | > 100 µM | > 100 µM | > 100 µM | > 100 µM | > 100 µM | > 100 µM | > 100 µM | –
